Structures are written as SMILES.

What all share (format): cell-based, human
Assay [1] concerns HaCaT knock-out cells devoid of LRRC8D. Description: Blasticidin tolerance of LRRC8D knock-out cells. Particulars: LRRC8D gene knock-out. From the text:
FIG. 2: (A) Microscopic analysis of cytotoxic effect of blasticidin on HaCaT wildtype keratinocytes (VVT) (upper panel), HaCaT knock-out cells devoid of LRRC8A (LRRC8A^−/− KO) and HaCaT knock-out cells devoid of LRRC8D (LRRC8D^−/− KO). (B) Graphical display of survival rate of HaCaT wildtype vs. LRRC8A knock-out cells in presence of blasticidin.
(§1) In order to determine the tolerance against the antibiotic blasticidin, HaCaT wildtype keratinocytes (VVT; Boukamp, et al.1988, The Journal of Cell Biology, 106(3):761-771.) as well as HaCaT-LRRC8A^−/− knock-out (KO) cells were treated with different concentrations of blasticidin and growth was determined microscopically for several days (FIG. 2). […] As previously shown for KBM-7cells^10, the LRRC8D subunit is also required for blasticidin uptake in HaCaT cells (FIG. 2A).

Assay [2] relates to HaCaT cells. Description: Co-editing of LRRC8D and EMX1 with blasticidin enrichment, Sanger sequencing and ICE analysis. The settings on record: transfected HaCaT cells treated with blasticidin. How it is done: The functionality of the above-described co-editing system was tested by using EMX1 (Empty Spiracles Homeobox 1) as gene-of-interest and LRRC8D as blasticidin resistance-mediating gene. EMX1 is a commonly used reference gene in CRISPR-based research^23. Instead of LRRC8A, another member of the LRRC8 gene family, LRRC8D, was used. First, the coding sequences of two sgRNAs targeting the LRRC8D and EMX1 gene were cloned into an expression plasmid containing the coding sequence for the Cas9 nuclease (FIGS. 4 and 5A). Then HaCaT cells were transfected with the expression plasmids and cells were either treated or not treated with blasticidin (FIG. 5A). After several days of cultivation, genomic DNA was extracted and used in PCR to amplify the genomic-region of the LRRC8D and EMX gene. The PCR products were analyzed by Sanger sequencing and subsequent ICE (Inference of CRISPR Edits)^24 analysis to determine the genetic modifications occurring in the treated and non-treated HaCaT cells (FIG. 5B). Strikingly, when the transfected HaCaT cell pool was not treated with blasticidin, no editing event could be detected; neither in the EMX1 nor in the LRRC8D gene.

For assay [3], the system named is HEK293 cells. The assay can be described thus: Co-editing of LRRC8A and EMX1 with blasticidin enrichment, ICE analysis. Particulars: HEK293, after blasticidin. As to the method:
(§2) To further increase the editing rate of the gene of interest, the two single sgRNA cassettes of the gene of interest and the LRRC8A or LRRC8D selection gene (FIG. 6A) can be transcriptionally coupled, for example by coupling the sgRNAs via ribozyme structures (FIG. 6B) or by other processing sites such as tRNAs (FIG. 6C). […] Then HaCaT cells were transfected with the corresponding expression plasmids and cells were treated and analyzed as described in Example 4.
To confirm the suitability of the co-editing strategy of the present invention also for a different cell type, the same experimental setup was applied for HEK293 cells (FIG. 7B). Again, initial editing of the gene of interest EMX1 was also very low in HEK293 cells. By applying the co-editing strategy as presented above for HaCaT cells, it was also possible to increase the editing rates to approx. 60% for EMX1 and approx. 90% for LRRC8A in HEK293 cells (using uncoupled sgRNA expression constructs) (FIG. 7B).
Again, by transcriptional coupling it was possible to further increase editing rates for EMX1 from 62% to 74% (FIG. 7B).

Assay [4] relates to HaCaT wildtype keratinocytes. The assay can be described thus: Blasticidin tolerance, growth determined microscopically. Particulars: 4 μg/ml blasticidin, HaCaT-WT cells. How it is done: as §1
For assay [5], the system named is HaCaT-LRRC8A−/− knock-out (KO) cells. The assay is described as above. How it is done: as §1
The test system of assay [6] is non-pure LRRC8A−/− HaCaT cell clone. Description: Removal of wildtype cells from a mixed LRRC8A−/− cell pool, PCR of genomic DNA. The settings on record: single pulse 4 μg/ml blasticidin for 24 h, then blasticidin-free medium. The text has this:
Creating single cell clones is one of the most challenging tasks in all fields of genome engineering. […] Therefore it was of interest to analyze whether the LRRC8A-mediated blasticidin resistance could be a very easy method to get rid of non-edited wildtype cells. To mimic this issue, a non-pure LRRC8A^−/− HaCaT cell clone, which contained the desired 300 bp LRRC8A genomic deletion as well as few undesired HaCaT wildtype cells, was chosen and either treated or not treated with a single blasticidin pulse (4 μg/ml blasticidin applied for 24 h) (FIG. 3A). Then cultivation medium was changed and cells were cultivated in absence of blasticidin. Genomic DNA was isolated and PCR was performed to visualize the genomic deletion of LRRC8A in knock-out cells and/or the non-deleted, intact LRRC8A gene of wildtype cells (FIG. 3B). […] Strikingly, treatment with blasticidin prevented this effect: No
This also proves that disruption of the LRRC8A-mediated blasticidin resistance can not only be used to create blasticidin-resistant cells but that it is also suited to get rid of unwanted wildtype cells during genome engineering.

Assay [7] relates to HEK293 cells. Description: HR-dependent LRRC8A gene disruption, cell growth under blasticidin. Particulars: HEK293, Cas9 + intronic LRRC8A sgRNA, treated 72 h after transfection. How it is done:
Next, it was tested whether the above-described strategy (Example 6, FIG. 8) can indeed be employed to enrich HR-capable cells (or conversely to get rid of cells which have performed NHEJ). First, a HDR donor template was designed (FIG. 9A), which creates a modified, non-functional LRRC8A sequence after successful insertion via HR. The HDR donor template is composed of left and right HR flaks, which are complementary to intronic and exon-3 LRRC8A sequence, respectively. The exon-3 sequence used in the HDR donor template carries two modifications to create non-functional LRRC8A: (i) Mutation of the translational start site ATG to ATT and (ii) deletion of one nucleotide (Guanin) to create LRRC8A frameshift. To also test whether foreign or recombinant DNA sequences can be inserted into the LRRC8A locus as well, the restriction site for the Kpnl restriction enzyme was included into the HDR donor template. To prevent the repeated cutting of the Cas9 enzyme (which would prevent successful HDR donor template insertion), the spacer sequence of the sgRNA (which is used to induce the DSB at the intronic region of LRRC8A) was modified by mutating the PAM motif and the seed region. […]

For assay [8], the system named is HaCaT cells. The assay can be described thus: Co-editing of LRRC8A and EMX1 with blasticidin enrichment, ICE analysis. The settings on record: for EMX1 editing: after blasticidin. How it is done:
as §2
The initial editing rates for EMX1 and LRRC8A were determined 48 h post-transfection and were very low (<5%) (FIG. 7A). Treatment with blasticidin led to drastic increase of LRRC8A editing (>95%), which was equally high independent of the sgRNA expression construct showing efficient enrichment of LRRC8A-KO cells using blasticidin (FIG. 7A). When sgRNA expression cassette of EMX1 was independent from that of LRRC8A, EMX1 editing was increased from 3 to 7%. Strikingly, by coupling the two sgRNA cassettes of EMX1 and LRRC8A via ribozymes, EMX1 editing could drastically be increased from 7% to >70% (FIG. 7A). This clearly proves that the above-described strategy to increase low editing events by transcriptional coupling is functioning.

Take `CN(CC[C@H](N)CC(=O)N[C@H]1C=C[C@H](n2ccc(N)nc2=O)O[C@@H]1C(=O)O)C(=N)N` [blasticidin]: in assay [1], the “blasticidin resistance of LRRC8D knock-out cells” value was “resistant”. In addition, the “editing percentage of the LRRC8D gene” value with HaCaT cells [2] is given as 90%. The “editing percentage of the co-edited EMX1 gene” value in the assay on HaCaT cells [2] is listed as 6%. Further, the “editing rate for EMX1” value in the assay on HEK293 cells [3] (transcriptional coupling) was 74%. Moreover, the “editing rate for LRRC8A” value in the assay with HEK293 cells [3] (uncoupled sgRNA expression constructs) was “approx. 90%”. For the same compound, in assay [4], the “growth of cells in presence of blasticidin” value was “not able to grow anymore and died”. In assay [5], the “survival of cells under blasticidin treatment” value was “survived the treatment”. Further, the “PCR products of wildtype and knock-out cells after blasticidin treatment” value in assay [6] is on record as “only the PCR product of the pure knock-out cell clone was detectable”. Further, the “cell growth under blasticidin treatment” value with HEK293 cells [7] (HDR donor template included) is on record as “cell growth was observed”; in the assay on HEK293 cells [7] (HDR template omitted), “no cell growth was observed”. For the same compound, the LRRC8A editing in the assay with HaCaT cells [8] (after blasticidin treatment, independent of sgRNA expression construct) is > 95%. The EMX1 editing was 7% with HaCaT cells [8] (EMX1 sgRNA cassette independent from LRRC8A) and > 70% with HaCaT cells [8] (sgRNA cassettes coupled via ribozymes HDV/HH).

For the origin of these results see patent US20210163937A1, “[…] GENOME-EDITED CELLS” (B.R.A.I.N. Biotechnology Research and Information Network AG, priority 2018, published 2021).
